In PubChem BioAssay AID1963968 (Molecular Pharmacology Branch, DTP, NCI, 2024):
“And” between values parts separate entries of the source, which are not always exact repeats. Identical values can stand only once.

Test system: 945468-187-T-J3-PDC spheroids with HUVEC/MSC, viability
Test: Anticancer human tumor 945468-187-T-J3-PDC patient-derived rectal carcinoma cell line growth inhibition [PI3K]
Details: for viability, T/C: stronger effect = lower value
How it was run: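 Multi-cell spheroids combine tumor cells with HUVEC and human MSCs, treated with targeted agents alone or with inavolisib, alpelisib, duvelisib or copanlisib. Concentrations fall in half-log steps from at or near clinical Cmax, or from 10 microM where Cmax is unknown; viability read-out.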

[1] = curve of first compound, second compound 0.0316 µM
[2] = curve of first compound, second compound 0.1 µM
[3] = curve of first compound, second compound 0.316 µM
[4] = curve of first compound, second compound 1 µM
[5] = curve of first compound, second compound 3.16 µM
[6] = curve of first compound, second compound 10 µM
[7] = second compound 0.0316 µM, first compound 0.0316 µM
[8] = second compound 0.0316 µM, first compound 0.1 µM
[9] = second compound 0.0316 µM, first compound 0.316 µM
[10] = second compound 0.0316 µM, first compound 1 µM
[11] = second compound 0.0316 µM, first compound 3.16 µM
[12] = second compound 0.0316 µM, first compound 10 µM
[13] = second compound 0.1 µM, first compound 0.0316 µM
[14] = second compound 0.1 µM, first compound 0.1 µM
[15] = second compound 0.1 µM, first compound 0.316 µM
[16] = second compound 0.1 µM, first compound 1 µM
[17] = second compound 0.1 µM, first compound 3.16 µM
[18] = second compound 0.1 µM, first compound 10 µM
[19] = second compound 0.316 µM, first compound 0.0316 µM
[20] = second compound 0.316 µM, first compound 0.1 µM
[21] = second compound 0.316 µM, first compound 0.316 µM
[22] = second compound 0.316 µM, first compound 1 µM
[23] = second compound 0.316 µM, first compound 3.16 µM
[24] = second compound 0.316 µM, first compound 10 µM
[25] = second compound 1 µM, first compound 0.0316 µM
[26] = second compound 1 µM, first compound 0.1 µM
[27] = second compound 1 µM, first compound 0.316 µM
[28] = second compound 1 µM, first compound 1 µM
[29] = second compound 1 µM, first compound 3.16 µM
[30] = second compound 1 µM, first compound 10 µM
[31] = second compound 3.16 µM, first compound 0.0316 µM
[32] = second compound 3.16 µM, first compound 0.1 µM
[33] = second compound 3.16 µM, first compound 0.316 µM
[34] = second compound 3.16 µM, first compound 1 µM
[35] = second compound 3.16 µM, first compound 3.16 µM
[36] = second compound 3.16 µM, first compound 10 µM
[37] = second compound 10 µM, first compound 0.0316 µM
[38] = second compound 10 µM, first compound 0.1 µM
[39] = second compound 10 µM, first compound 0.316 µM
[40] = second compound 10 µM, first compound 1 µM
[41] = second compound 10 µM, first compound 3.16 µM
[42] = second compound 10 µM, first compound 10 µM
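Further: spheroids exposed to agents for 7 days before viability read.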
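Wherever viability, T/C is given: 100% = DMSO vehicle control viability.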

Structure (SMILES): CC(Cn1ccc(-c2ccc(C#N)c(Cl)c2)n1)NC(=O)c1cc(C(C)O)[nH]n1 (stereo not drawn)
- viability, T/C (compound 0.0316 µM): 89.7% [middle of 4 runs]
- viability, T/C (compound 0.1 µM): 97.5% [middle of 4 runs]
- viability, T/C (compound 0.316 µM): 94.9% [middle of 4 runs]
- viability, T/C (compound 1 µM): 99.5% [middle of 4 runs]
- viability, T/C (compound 3.16 µM): 114% [middle of 4 runs]
- viability, T/C (compound 10 µM): 89.8% and 101% (2×) and 99%
- IC50 (curve of compound): > 10 µM

Structure (SMILES): C[C@@H](NC(=O)c1ncnc(N)c1Cl)c1ncc(C(=O)Nc2cc(C(F)(F)F)c(Cl)cn2)s1 + Cc1nc(NC(=O)N2CCCC2C(N)=O)sc1-c1ccnc(C(C)(C)C(F)(F)F)c1
- IC50 [1]: > 10 µM
- IC50 [2]: > 10 µM
- IC50 [3]: > 10 µM
- IC50 [4]: > 10 µM
- IC50 [5]: > 10 µM
- IC50 [6]: > 10 µM
- viability, T/C [7]: 107%
- viability, T/C [8]: 107%
- viability, T/C [9]: 91.6%
- viability, T/C [10]: 111%
- viability, T/C [11]: 106%
- viability, T/C [12]: 105%
- viability, T/C [13]: 101%
- viability, T/C [14]: 97.2%
- viability, T/C [15]: 94.8%
- viability, T/C [16]: 110%
- viability, T/C [17]: 111%
- viability, T/C [18]: 107%
- viability, T/C [19]: 95.8%
- viability, T/C [20]: 98.6%
- viability, T/C [21]: 95.4%
- viability, T/C [22]: 120%
- viability, T/C [23]: 112%
- viability, T/C [24]: 100%
- viability, T/C [25]: 108%
- viability, T/C [26]: 115%
- viability, T/C [27]: 102%
- viability, T/C [28]: 114%
- viability, T/C [29]: 97.6%
- viability, T/C [30]: 107%
- viability, T/C [31]: 108%
- viability, T/C [32]: 98%
- viability, T/C [33]: 101%
- viability, T/C [34]: 96.4%
- viability, T/C [35]: 99%
- viability, T/C [36]: 103%
- viability, T/C [37]: 67.1%
- viability, T/C [38]: 51.1%
- viability, T/C [39]: 44.1%
- viability, T/C [40]: 56%
- viability, T/C [41]: 61.9%
- viability, T/C [42]: 51.3%

Structure (SMILES): CC1(C)CCC(CN2CCN(c3ccc(C(=O)NS(=O)(=O)c4ccc(NCC5CCOCC5)c([N+](=O)[O-])c4)c(Oc4cnc5[nH]ccc5c4)c3)CC2)=C(c2ccc(Cl)cc2)C1 + COc1c(OCCCN2CCOCC2)ccc2c3n(c(=NC(=O)c4cnc(N)nc4)nc12)CCN3
- IC50 (curve of first compound, second compound 0.00316 µM): 6.06 µM
- IC50 (curve of first compound, second compound 0.01 µM): 6.08 µM
- IC50 [1]: 6.29 µM
- IC50 [2]: 1.11 µM
- IC50 [3]: < 0.0316 µM
- IC50 [4]: < 0.0316 µM
- viability, T/C (second compound 0.00316 µM, first compound 0.0316 µM): 93.4%
- viability, T/C (second compound 0.00316 µM, first compound 0.1 µM): 106%
- viability, T/C (second compound 0.00316 µM, first compound 0.316 µM): 117%
- viability, T/C (second compound 0.00316 µM, first compound 1 µM): 91.1%
- viability, T/C (second compound 0.00316 µM, first compound 3.16 µM): 116%
- viability, T/C (second compound 0.00316 µM, first compound 10 µM): 8%
- viability, T/C (second compound 0.01 µM, first compound 0.0316 µM): 103%
- viability, T/C (second compound 0.01 µM, first compound 0.1 µM): 90.8%
- viability, T/C (second compound 0.01 µM, first compound 0.316 µM): 93.1%
- viability, T/C (second compound 0.01 µM, first compound 1 µM): 97.3%
- viability, T/C (second compound 0.01 µM, first compound 3.16 µM): 119%
- viability, T/C (second compound 0.01 µM, first compound 10 µM): 11.3%
- viability, T/C [7]: 107%
- viability, T/C [8]: 94%
- viability, T/C [9]: 114%
- viability, T/C [10]: 98.1%
- viability, T/C [11]: 106%
- viability, T/C [12]: 13.7%
- viability, T/C [13]: 54%
- viability, T/C [14]: 43.4%
- viability, T/C [15]: 50.4%
- viability, T/C [16]: 53%
- viability, T/C [17]: 48.5%
- viability, T/C [18]: 8.54%
- viability, T/C [19]: 22.1%
- viability, T/C [20]: 20.7%
- viability, T/C [21]: 18.1%
- viability, T/C [22]: 24.3%
- viability, T/C [23]: 25.7%
- viability, T/C [24]: 5.28%
- viability, T/C [25]: 16.7%
- viability, T/C [26]: 17.9%
- viability, T/C [27]: 17.8%
- viability, T/C [28]: 19.7%
- viability, T/C [29]: 17.7%
- viability, T/C [30]: 3.81%

Structure (SMILES): CC(C)NCC(C(=O)N1CCN(c2ncnc3c2C(C)CC3O)CC1)c1ccc(Cl)cc1 (stereo not drawn) + CC(Nc1ncnc2nc[nH]c12)c1cc2cccc(Cl)c2c(=O)n1-c1ccccc1
- IC50 [1]: 4.58 µM
- IC50 [2]: 6.84 µM
- IC50 [3]: 6.66 µM
- IC50 [4]: 8.31 µM
- IC50 [5]: 2.97 µM
- IC50 [6]: 2.06 µM
- viability, T/C [7]: 112%
- viability, T/C [8]: 100%
- viability, T/C [9]: 104%
- viability, T/C [10]: 78.9%
- viability, T/C [11]: 56.3%
- viability, T/C [12]: 38.4%
- viability, T/C [13]: 119%
- viability, T/C [14]: 92.3%
- viability, T/C [15]: 86%
- viability, T/C [16]: 88.6%
- viability, T/C [17]: 62.6%
- viability, T/C [18]: 40.5%
- viability, T/C [19]: 97.2%
- viability, T/C [20]: 93.2%
- viability, T/C [21]: 94.6%
- viability, T/C [22]: 87.6%
- viability, T/C [23]: 63.5%
- viability, T/C [24]: 42.7%
- viability, T/C [25]: 114%
- viability, T/C [26]: 103%
- viability, T/C [27]: 85.3%
- viability, T/C [28]: 86%
- viability, T/C [29]: 58.6%
- viability, T/C [30]: 48.1%
- viability, T/C [31]: 98.3%
- viability, T/C [32]: 91.8%
- viability, T/C [33]: 84.2%
- viability, T/C [34]: 79.2%
- viability, T/C [35]: 46.5%
- viability, T/C [36]: 32.4%
- viability, T/C [37]: 90.7%
- viability, T/C [38]: 88%
- viability, T/C [39]: 82.8%
- viability, T/C [40]: 70.8%
- viability, T/C [41]: 37.5%
- viability, T/C [42]: 28.2%

Structure (SMILES): Cn1nccc1Nc1nccc(-c2ccn(C(CO)c3ccc(Cl)c(F)c3)c(=O)c2)n1 (stereo not drawn)
- viability, T/C (compound 0.0316 µM): 95.4% [middle of 4 runs]
- viability, T/C (compound 0.1 µM): 104% [middle of 4 runs]
- viability, T/C (compound 1 µM): 111% [middle of 4 runs]
- viability, T/C (compound 3.16 µM): 136% (2×) and 113% and 127%
- IC50 (curve of compound): > 10 µM
